Experiments:
RARα = target: T1, RARα (Homo sapiens, UniProt P10276); assay: RARE-luciferase reporter assay in transfected CV-1 cells (affinity to retinoic acid receptor), RARα; format: cell-based; conditions: treated 24 hours at final concentration 10^−4M, control group 1000
T1 construct: expressed in transfected cells; host or cells: CV-1 cells (ATCC)
T1 sequence (P10276 1-462): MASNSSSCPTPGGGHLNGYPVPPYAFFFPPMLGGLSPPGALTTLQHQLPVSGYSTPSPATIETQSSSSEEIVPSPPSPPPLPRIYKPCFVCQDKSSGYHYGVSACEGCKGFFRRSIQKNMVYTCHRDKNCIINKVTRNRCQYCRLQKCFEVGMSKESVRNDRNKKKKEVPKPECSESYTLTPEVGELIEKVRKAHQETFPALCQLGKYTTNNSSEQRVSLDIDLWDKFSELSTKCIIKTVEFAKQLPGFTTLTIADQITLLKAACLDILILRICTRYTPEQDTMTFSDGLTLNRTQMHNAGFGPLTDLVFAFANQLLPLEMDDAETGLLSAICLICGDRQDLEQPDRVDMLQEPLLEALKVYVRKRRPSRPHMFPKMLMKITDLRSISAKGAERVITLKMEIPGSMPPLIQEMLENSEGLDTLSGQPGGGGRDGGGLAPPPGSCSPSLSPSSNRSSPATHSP
Summary of the method: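 CV-1 cells co-transfected with pECE-RARα or pECE-RARγ, RARE-tk-Luc reporter and β-galactosidase vector. Starting 24 h post-transfection, cells were treated for 24 h with compounds at a final 10^−4M; luciferase reporter read-out.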

RARγ = target: T2, RARγ (Homo sapiens, UniProt P13631); assay: RARE-luciferase reporter assay in transfected CV-1 cells (affinity to retinoic acid receptor), RARγ; format: cell-based; conditions: treated 24 hours at final concentration 10^−4M, control group 5000
T2 construct: expressed in transfected cells; host or cells: CV-1 cells (ATCC)
T2 sequence (P13631 1-454): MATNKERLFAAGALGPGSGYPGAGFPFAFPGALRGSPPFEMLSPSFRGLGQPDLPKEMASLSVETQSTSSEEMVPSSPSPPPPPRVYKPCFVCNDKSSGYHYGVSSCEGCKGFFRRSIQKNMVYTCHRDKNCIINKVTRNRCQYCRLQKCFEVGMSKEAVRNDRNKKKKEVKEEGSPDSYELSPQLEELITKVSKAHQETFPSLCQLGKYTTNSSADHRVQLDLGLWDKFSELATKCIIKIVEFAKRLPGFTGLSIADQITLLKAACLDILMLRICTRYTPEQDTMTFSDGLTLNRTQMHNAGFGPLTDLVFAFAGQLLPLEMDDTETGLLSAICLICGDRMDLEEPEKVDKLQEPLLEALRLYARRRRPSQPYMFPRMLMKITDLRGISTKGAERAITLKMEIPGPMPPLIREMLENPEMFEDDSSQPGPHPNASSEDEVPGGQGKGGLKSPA
Summary of the method: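 CV-1 cells in DMEM with 2.5% FBS, 5,000 per well, transfected 24 h after seeding with 10 ng pECE-RARα, pECE-RARγ, 100 ng RARE-tk-Luc reporter and 100 ng β-galactosidase vector. Read-out is RARE-driven luciferase.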

procollagen type I = assay: Effect on collagen biosynthesis (procollagen type I ELISA) in human fibroblasts; format: cell-based; conditions: 10^−4M, 24 hours, serum-free medium, relative to control group = 100
Method: Human fibroblasts were seeded into 24-well plate at 1×10^5 cells per well and then cultured to 90% of growth.
For each supernatant, procollagen production was measured with procollagen type I ELISA kit.

collagenase = assay: Inhibition of collagenase expression in human fibroblasts (ELISA kit); format: cell-based; conditions: 10^−4M, 24 hours, serum-free medium, relative to control group = 100
Summary of the method: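 Serum-starved human fibroblasts were treated for 24 h with 10^−4M test material in serum-free DMEM. Collagenase in the culture fluid was measured by sandwich ELISA read at 405 nm. Values are expressed as % of the untreated control (=100).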

elastase = assay: Inhibition of elastase expression in human fibroblasts (ELISA kit); format: cell-based; conditions: 10^−4M, 24 hours, serum-free medium, relative to control group = 100
Summary of the method: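 Elastase in fibroblast culture fluid quantified by sandwich ELISA: 3 h capture, then chromophore-conjugated secondary antibody, then colour development, stopped with 1M sulfuric acid. Absorbance read at 405 nm. Expression given as % of the untreated control absorbance, with control set to 100.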

white guinea pigs = assay: Phototoxicity test (UVA irradiation); conditions: for Evaluation (phototoxicity): 1%(w/v) solution, UVA 15 J/cm^2; for Phototoxic index: 50 μl of 1%(w/v) solution, UVA 320~380 nm 15 J/cm^2, observed 24, 48 and 72 hours
rabbits = assay: Primary skin irritation test on animals (Draize P.I.I.); conditions: depilated back; for P.I.I. (Primary Irritation Index): 0.5 ml of 1% solution in 1,3-butylene glycol:ethanol 7:3, observed 24 or 72 hours later; for Evaluation (skin irritation): 1% solution, according to Draize's P.I.I.
Method: Test was performed using fifty-six (56) of healthy male rabbits whose backs were depilated. […] 0.5ml of the test sample solution was applied to the right site of 2.5 cm×2.5 cm region on each of the depilated back. Left site with no sample treated was compared as a control. 24 hours or 72 hours later, skin abnormality such as erythema, crust and edema was observed.
Based on the score of skin response, skin irritation was evaluated according to Draize's P.I.I.(Primary Irritation Index) and compared with retinoic acid.

SMILES | Luciferase activity RARα (RARα) | Luciferase activity RARγ (RARγ) | Collagen biosynthesis (%) (procollagen type I) | Collagenase expression (%) (collagenase) | Elastase expression (%) (elastase) | Evaluation (phototoxicity) (white guinea pigs) | Phototoxic index (white guinea pigs) | P.I.I. (Primary Irritation Index) (rabbits) | Evaluation (skin irritation) (rabbits)
CC(C)(C)c1ccc(NC(=O)c2ccc(C(=O)NO)cc2)cc1 [Example 41, [4-(N-hydroxycarbamoyl)phenyl]-N-[4-tert-butylphenyl]carboxyamide] | 14300 | 11211 | 115 | 88 | 78 | No phototoxicity (lower value than 0.5, criterion value to be estimated as no phototoxicity) | 0 | 0.367 | No irritation
Cc1ccc(NC(=O)c2ccc(C(=O)NO)cc2)cc1C [Example 42, [4-(N-hydroxycarbamoyl)phenyl]-N-[3,4-dimethylphenyl]carboxyamide] | 14500 | 11200 | 116 | 78 | 76 | No phototoxicity (lower value than 0.5, criterion value to be estimated as no phototoxicity) | 0 | 0.987 | No irritation
O=C(NO)c1ccc(C(=O)NC23CC4CC(CC(C4)C2)C3)cc1 [Example 43, [4-(N-hydroxycarbamoyl)phenyl]-N-adamantyl carboxyamide] | 18900 | 10600 | 130 | 77 | 70 | No phototoxicity (lower value than 0.5, criterion value to be estimated as no phototoxicity) | 0 | 0.456 | No irritation
Cc1ccc(N(C)C(=O)c2ccc(C(=O)NO)cc2)cc1 [Example 46, [4-(N-hydroxycarbamoyl)phenyl]-N-methyl-N-[4-methylphenyl]carboxyamide] | 13200 | 11123 | 121 | 83 | 80 | No phototoxicity (lower value than 0.5, criterion value to be estimated as no phototoxicity) | 0 | 0.345 | No irritation
Cc1cccc(N(C)C(=O)c2ccc(C(=O)NO)cc2)c1 [Example 47, [4-(N-hydroxycarbamoyl)phenyl]-N-methyl-N-[3-methylphenyl]carboxyamide] | 12200 | 11700 | 112 | 79 | 83 | No phototoxicity (lower value than 0.5, criterion value to be estimated as no phototoxicity) | 0 | 0.367 | No irritation
CCc1ccc(N(C)C(=O)c2ccc(C(=O)NO)cc2)cc1 [Example 48, [4-(N-hydroxycarbamoyl)phenyl]-N-methyl-N-[4-ethylphenyl]carboxyamide] | 15500 | 11200 | 107 | 87 | 87 | No phototoxicity (lower value than 0.5, criterion value to be estimated as no phototoxicity) | 0 | 0.468 | No irritation
CCCc1ccc(N(C)C(=O)c2ccc(C(=O)NO)cc2)cc1 [Example 49, [4-(N-hydroxycarbamoyl)phenyl]-N-methyl-N-[4-propylphenyl]carboxyamide] | 14500 | 12100 | 109 | 81 | 87 | No phototoxicity (lower value than 0.5, criterion value to be estimated as no phototoxicity) | 0 | 0.342 | No irritation
CC(C)c1ccc(N(C)C(=O)c2ccc(C(=O)NO)cc2)cc1 [Example 50, [4-(N-hydroxycarbamoyl)phenyl]-N-methyl-N-[4-isopropylphenyl]carboxyamide] | 12300 | 11212 | 110 | 80 | 78 | No phototoxicity (lower value than 0.5, criterion value to be estimated as no phototoxicity) | 0 | 0.234 | No irritation
CCCCc1ccc(N(C)C(=O)c2ccc(C(=O)NO)cc2)cc1 [Example 51, [4-(N-hydroxycarbamoyl)phenyl]-N-methyl-N-[4-butylphenyl]carboxyamide] | 13400 | 12210 | 121 | 76 | 77 | No phototoxicity (lower value than 0.5, criterion value to be estimated as no phototoxicity) | 0 | 0.331 | No irritation
CN(C(=O)c1ccc(C(=O)NO)cc1)c1ccc(C(C)(C)C)cc1 [Example 52, [4-(N-hydroxycarbamoyl)phenyl]-N-methyl-N-[4-tert-butylphenyl]carboxamide] | 12400 | 12130 | 127 | 77 | 87 | No phototoxicity (lower value than 0.5, criterion value to be estimated as no phototoxicity) | 0 | 0.412 | No irritation
Cc1ccc(N(C)C(=O)c2ccc(C(=O)NO)cc2)cc1C [Example 53, [4-(N-hydroxycarbamoyl)phenyl]-N-methyl-N-[3,4-dimethylphenyl]carboxyamide] | 14500 | 12300 | 122 | 75 | 80 | No phototoxicity (lower value than 0.5, criterion value to be estimated as no phototoxicity) | 0 | 0.321 | No irritation
CN(C(=O)c1ccc(C(=O)NO)cc1)C12CC3CC(CC(C3)C1)C2 [Example 54, [4-(N-hydroxycarbamoyl)phenyl]-N-adamantyl-N-methylcarboxyamide] | 22500 | 11000 | 121 | 83 | 67 | No phototoxicity (lower value than 0.5, criterion value to be estimated as no phototoxicity) | 0 | 0.567 | No irritation
